How the values were obtained:
[1] = Solubility in aqueous saline solution; type: physicochemical
[2] = Pharmacokinetics in tumor free Balb/C mice; type: in vivo
Protocol: Tumor free Balb/C mice were injected with a single injection of 20 mg/kg 4armPEG-Gly-(7-ethyl-10-hydroxycamptothecin) conjugates. At various time points mice were sacrificed and plasma was analyzed for intact conjugates and released 7-ethyl-10-hydroxycamptothecin by HPLC. Pharmacokinetic analysis was done using non-compartmental analysis (WinNonlin).

Pharmacokinetics in rats = type: in vivo
Protocol: Additionally, pharmacokinetic profiles of 4arm PEG-Gly-(7-ethyl-10-hydroxycamptothecin) were investigated in rats. In rats, dose levels of 3, 10 and 30 mg/kg (7-ethyl-10-hydroxycamptothecin equivalent) were used. The pharmacokinetic profiles in rats were consistent with those of mice.

[3] = system: CAMs grafted with tumor biopsy specimens of HTLA-230 or GI-LI-N xenografts; conditions: for number of allantoic vessels radiating towards the tumor specimen: compared to control CAMs, CPT-11 10 or 40 mg/kg, compound 9 10 mg/kg (SN38 based)
Protocol: Protoc. 2006, 1:85-91. Mice were injected with the human NB cell line, HTLA-230 or GI-LI-N. Tumor biopsy specimens in size of 1-2 mm^3 were obtained from the xenografted mice and then grafted onto the CAMs. […] In the control group, the CAMs were incubated with PBS buffer. […] The CAMs were examined daily for 12 days and photographed in ovo with a stereomicroscope equipped with a camera and image analyzer system (Olympus Italia, Italy). CD31-positive microvessels were measured and normalized with that of the control group. Less CD31-positive microvessels mean greater antiangiogenic effects. Microvessel density was represented by the percentage of the total number of intersection points occupied by CD31-positive vessels cut transversely (diameter of 3-10 μm). Mean values±SD were determined for each analysis.

HIF-1α [4] = experiment: HIF-1-dependent luciferase expression in U251-HRE human glioma xenografts; type: in vivo, mice; conditions: for luminescence (HIF-1-dependent luciferase): single dose or multiple doses, 48 hour and 120 hour time points, not normalized
Protocol: The effect was measured by HIF-1-dependent luciferase expression in the U251-HRE xenografts.
(§1) The human glioma cell line, U251-HRE was kindly provided by Dr. Giovanni Melillo at National Cancer Institute (Frederick, Md., United States). The cells were transfected with luciferase reporter plasmids containing three copies of a canonical hypoxia response element (HRE) from the inducible nitric oxide synthase gene (Rapsirada, et al. 2000). U251-HRE tumors were established in the right axillary flank of female Harlan Sprague-Dawley nude mice (Harlan World, Indianapolis, Ind.) by subcutaneous injection of 1×10^7 U251-HRE cells/mouse. […] At each treatment time point, the tumor volume measurements were recorded and the tumor weights (mg) calculated using mg=[tumor length×(tumor width)]/2. […] To do so, the mice were injected intraperineally with 150 mg/kg of D-luciferin Firefly, potassium salt (Biosynth International, Inc., Itasca, Ill.). After 10 minutes, the mice were anesthetized via isofluorane gas and imaged using the Xenogen IVIS 100 Imaging Station (Xenogen Corp., Alameda, Calif.).

U251-HRE xenografts = conditions: zero to 125 hours of treatment (FIG. 13)
From the text: as §1

[5] = Hydrolysis in human plasma (conjugate half life, 7-ethyl-10-hydroxycamptothecin formation); type: in vitro ADME
Protocol: In human plasma, 7-ethyl-10-hydroxycamptothecin was steadily released from the PEG conjugates with a doubling time of 22 to 52 minutes and the release appeared to be pH and concentration dependent as described in the following EXAMPLE 24.

[6] = 7-ethyl-10-hydroxycamptothecin formation from conjugates in mouse plasma; type: in vitro ADME
[7] = 7-ethyl-10-hydroxycamptothecin formation from conjugates in rat plasma; type: in vitro ADME
[8] = system: human neuroblastoma cells (GI-LI-N) xenograft tumors; experiment: Tumor angiogenesis and invasion in orthotopic GI-LI-N xenografted mice (VEGF, CD31, MMP-2, MMP-9 staining); type: in vivo
Protocol: (§2) Xenograft tumors were established in mice by injecting human neuroblastoma cells (GI-LI-N) in the adrenal gland at day 0 (T0). […] The control group mice received HEPES-buffered saline solution. Histological examination was performed on the tumors removed from the mice at day 44 (T44).
The tissue sections were stained with antibodies against VEGF and CD31 to evaluate inhibition of angiogenesis. […] Cell nuclei were stained with DAPI. Morphometric analysis was performed on 9 randomly selected fields every 3 sections, observed at 200× magnification with an Olympus photomicroscope, using Image Analysis software (Olympus Italia). […] The sections were then washed twice in PBS and saturated with 2% BSA in PBS. In the morphometric analysis, the mean value in each image from the section, the final mean value for all the images and the SEM were calculated. The statistical significance of the differences between the mean values of the different experimental conditions was determined by Student's t test (GraphPad software). Findings were considered significant at P values <0.05 for all statistical evaluations.

[9] = system: human neuroblastoma cells (GI-LI-N) xenograft tumors; conditions: compared to mice treated with CAMPTOSAR; 10 mg/kg i.v. q2d×5
Protocol: as §2
The tissue sections removed from the treated mice in Example 27 were immunostained with TUNEL to evaluate apoptosis, and with primary antibody against histone H2ax (H2AFX) to evaluate DNA-damage dependent histone phosphorylation.

HIF-1α [10] = system: HIF-1α
Protocol: (§3) The cancer cells were grown in complete DMEM or RPMI-1640 medium, supplemented with 10% heat-inactivated FCS, as described in Pastorino F. et al., Cancer Res. 2006, 66:10073-82, 2006; Pastorino F. et al., Clin. Cancer Res. 2008, 14:7320-9; and Brignole C, et al., J. Nat'l. Cancer Inst. 2006, 98:1142-57). […] In some experiments (FIGS. 14(B) and (C)), the cancer cells were pre-incubated with 0.15 mM of Desferal (DFX or Deferoxamine purchased from Novartis Pharma in Stein, Swizerland) for 6 hours to induce HIF-1α. […] The cells were collected and western blotting analysis was performed using cell lysates as described in Pagnan G. et al., Clin. Cancer Res. 2009, 15:1199-209). Monoclonal anti-p53 (clone PAb 1801) and anti-HIF-1α (clone 54) were purchased from BD Biosciences (Buccinasco, Mich., Italy). Anti-HIF-2α (clone ep190b), and an anti-GAPDH (clone 14c10) antibodies were from Novus Biologicals, Inc (Cambridge, UK) and Cell Signaling Technology (Danvers, Mass., US), respectively.

HIF-2α = conditions: GI-LI-N, HTLA-230, SH-SY5Y cells, 24 and 48 hours
Protocol: as §3

[11] = 7-ethyl-10-hydroxycamptothecin released from Compound 9, single injection 20 mg/kg of conjugate
[12] = released 7-ethyl-10-hydroxycamptothecin
[13] = multiple doses at MTD (q2d×3, day 0, 2, 4; compound 9 10 mg/kg, CPT-11 40 mg/kg), 120 hours
[14] = 10 mg/kg i.v. q2d×5, tumors removed day 44
[15] = significantly when compared to Camptosar (P<0.05), 10 mg/kg i.v. q2d×5

Compound: CCc1c2c(nc3ccc(O)cc13)-c1cc3c(c(=O)n1C2)COC(=O)[C@]3(O)CC [7-ethyl-10-hydroxycamptothecin]
- Solubility in Saline [1]: ^a7-ethyl-10-hydroxycamptothecin is not soluble in saline.
- AUC [2, 11]: 98300 ng·h/mL
- CL [2, 11]: 3.37 mL/min/kg
- Cmax [2, 11]: 13200 ng/mL
- Terminal t1/2 [2, 11]: 14.2 h
- Vss [2, 11]: 3.094 L/kg
- terminal elimination half-life ([2]; 7-ethyl-10-hydroxycamptothecin released from the conjugate, mice): 18 to 26 h
- Enterohepatic circulation ([2]; released 7-ethyl-10-hydroxycamptothecin, mice): observed
- apparent elimination half life (Pharmacokinetics in rats; 7-ethyl-10-hydroxycamptothecin released from 4armPEG-Gly conjugate): 21 to 22 h
- Enterohepatic circulation (Pharmacokinetics in rats; [12]): observed
- clearance (Pharmacokinetics in rats; [12]): 2.18 mL/min/kg
- estimated Vss (Pharmacokinetics in rats; [12]): 2.384 L/kg

Compound: CCc1c2c(nc3ccc(OC(=O)N4CCC(N5CCCCC5)CC4)cc13)-c1cc3c(c(=O)n1C2)COC(=O)[C@]3(O)CC [CPT-11, reference compound]
- number of allantoic vessels radiating towards the tumor specimen [3]: decreased
- downregulation of HIF-1α (luminescence normalized for tumor mass, change from baseline) (HIF-1α [4]; multiple doses (q2d×3, CPT-11 40 mg/kg), 48 hours): 15%
- downregulation of HIF-1α (luminescence normalized for tumor mass, change from baseline) (HIF-1α [4]; [13]): 32%
- luminescence (HIF-1-dependent luciferase) (HIF-1α [4]): minimal effect
- downregulation of HIF-1α (HIF-1α [4]; single injection (qd×1, CPT-11 80 mg/kg)): no downregulation
- tumor mass (U251-HRE xenografts): reduced

Compound: ^40K4arm-PEG-Sar-(20)-(7-ethyl-10-hydroxycamptothecin) [Compound 23]
- Doubling Time in Plasma, Human (7-ethyl-10-hydroxycamptothecin formation rate from conjugates) [5]: 28.8 min
- t1/2 in Human Plasma (PEG conjugate half life) [5]: 0.317 h
- Doubling Time in Plasma, Mouse (7-ethyl-10-hydroxycamptothecin formation rate from conjugates) [6]: 43.4 min
- Doubling Time in Plasma, Rat (7-ethyl-10-hydroxycamptothecin formation rate from conjugates) [7]: 481 min

Compound: ^40k4arm-PEG-Ala-(20)-(7-ethyl-10-hydroxycamptothecin) [Compound 12]
- Solubility in Saline [1]: 121 mg/mL
- Doubling Time in Plasma, Human (7-ethyl-10-hydroxycamptothecin formation rate from conjugates) [5]: 51.9 min
- t1/2 in Human Plasma (PEG conjugate half life) [5]: 0.208 h
- Doubling Time in Plasma, Mouse (7-ethyl-10-hydroxycamptothecin formation rate from conjugates) [6]: 45.8 min
- Doubling Time in Plasma, Rat (7-ethyl-10-hydroxycamptothecin formation rate from conjugates) [7]: 753 min

Compound: ^40k4arm-PEG-Gly(20)-(7-ethyl-10-hydroxycamptothecin) [Compound 9]
- number of allantoic vessels radiating towards the tumor specimen [3]: decreased
- number of radiating vessels which invade the tumor specimen ([3]; compound 9 compared to CPT-11, P<0.01): much less
- CD31 expression in primary NB tumors [8, 14]: inhibited
- VEGF expression in primary NB tumors [8, 14]: inhibited
- number of CD31-positive endothelial cells ([8]; compared to mice treated with CAMPTOSAR, P<0.05, 10 mg/kg i.v. q2d×5): decreased
- MMP-2 expression [8, 15]: inhibited
- MMP-9 expression [8, 15]: inhibited
- Histone H2ax staining in tumor tissues [9]: enhanced
- TUNEL staining in tumor tissues (apoptosis) [9]: enhanced
- downregulation of HIF-1α (luminescence normalized for tumor mass, change from baseline) (HIF-1α [4]; [13]): 93%
- downregulation of HIF-1α (luminescence normalized for tumor mass, change from baseline) (HIF-1α [4]; single dose (qd×1, compound 9 30 mg/kg), 48 hours): 37%
- downregulation of HIF-1α (luminescence normalized for tumor mass, change from baseline) (HIF-1α [4]; single dose (qd×1, compound 9 30 mg/kg), 120 hours): 83%
- luminescence (HIF-1-dependent luciferase) (HIF-1α [4]): diminished luminescence
- tumor mass (U251-HRE xenografts): reduced
- constitutive HIF-1α protein levels (HIF-1α [10]; human neuroblastoma cells, 24 hours (FIG. 14B)): decreased
- DFX-induced HIF-1α protein levels (HIF-1α [10]; pre-incubated with 0.15 mM Desferal 6 hours, then treated 24 hours (FIG. 14C)): decreased
- expression of HIF-2α protein (HIF-2α): inhibited

Compound: ^40k4arm-PEG-Met-(20)-(7-ethyl-10-hydroxycamptothecin) [Compound 18]
- Solubility in Saline [1]: 142 mg/mL
- Doubling Time in Plasma, Human (7-ethyl-10-hydroxycamptothecin formation rate from conjugates) [5]: 22.2 min
- t1/2 in Human Plasma (PEG conjugate half life) [5]: 0.447 h
- Doubling Time in Plasma, Mouse (7-ethyl-10-hydroxycamptothecin formation rate from conjugates) [6]: 41.9 min
- Doubling Time in Plasma, Rat (7-ethyl-10-hydroxycamptothecin formation rate from conjugates) [7]: 1920 min
